According to US12479816B2, “20-HETE formation inhibitors” (UNIVERSITY OF PITTSBURGH—OF THE COMMONWEALTH SYSTEM OF …, priority 2019, dated 2025):
In brackets after ≈: the same amount, converted by molar mass.

system: 20-HETE formation (CYP4) in HLM; assay: Inhibition of 20-HETE formation at 250 or 500 nM in HLM microsomal incubations; type: biochemical, human; details: 500 nM compound; HLM 300 μg/ml, AA 100 μM, 20 min
Method in brief: (§1)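 Liver or kidney microsomes (300 μg/ml) or rCYP4F2 (25 pmol/mL) were incubated with 100 μM arachidonic acid, 1 mM NADPH and compound at 250 or 500 nM in 0.12 M potassium phosphate/5 mM MgCl2 for 20 min at 37 °C. 20-HETE was measured by UPLC-MS/MS against 20-HETE-d6 and expressed as % of vehicle (n=3).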

SMILES	HLM % inh. @ 500 nM
COc1cncc(C2CCN(c3ccn[nH]3)CC2)c1 [Compound 60, 3-(1-(1H-Pyrazol-5-yl)piperidin-4-yl)-5-methoxypyridine]	3.70%
COc1ccc(C2CCN(c3cn[nH]c3)CC2)cc1Cl [Compound 64, 4-(3-Chloro-4-methoxyphenyl)-1-(1H-pyrazol-4-yl)piperidine]	88%
CC(=O)N(C)c1ccc(C2CCN(c3cn[nH]c3)CC2)c(F)c1 [Compound 69, N-(4-(1-(1H-Pyrazol-4-yl)piperidin-4-yl)-3-fluorophenyl)-N-methylacetamide]	85.6%
O=C1CCCN1c1ccc(C2CCN(c3ccn[nH]3)CC2)cc1 [Compound 101, 1-(4-(1-(1H-Pyrazol-5-yl)piperidin-4-yl)phenyl)pyrrolidin-2-one]	79.00%
CC(Nc1ccc(C2CCN(c3cn[nH]c3)CC2)cc1)C(F)(F)F (stereo not shown) [Compound 104, 4-(1-(1H-Pyrazol-4-yl)piperidin-4-yl)-N-(1,1,1-trifluoropropan-2-yl)aniline]	86.1%
O=C1CCCN1Cc1ccc(C2CCN(c3cn[nH]c3)CC2)cc1F [Compound 109, 1-(4-(1-(1H-Pyrazol-4-yl)piperidin-4-yl)-2-fluorobenzyl)pyrrolidin-2-one]	90.30%
Cc1ccc(CC2CCN(c3cn[nH]c3)CC2)cc1 [Compound 116, 4-(4-Methylbenzyl)-1-(1H-pyrazol-4-yl)piperidine]	86.40%

target: T1, rCYP4F2 (Homo sapiens, UniProt P78329); assay: Inhibition of 20-HETE formation at 250 or 500 nM in rCYP4F2 incubations; type: biochemical; details: 500 nM compound; rCYP4F2 25 pmol/mL; read-out: rCYP4F2 % inh. @ 500 nM
T1 sequence (P78329 5-520): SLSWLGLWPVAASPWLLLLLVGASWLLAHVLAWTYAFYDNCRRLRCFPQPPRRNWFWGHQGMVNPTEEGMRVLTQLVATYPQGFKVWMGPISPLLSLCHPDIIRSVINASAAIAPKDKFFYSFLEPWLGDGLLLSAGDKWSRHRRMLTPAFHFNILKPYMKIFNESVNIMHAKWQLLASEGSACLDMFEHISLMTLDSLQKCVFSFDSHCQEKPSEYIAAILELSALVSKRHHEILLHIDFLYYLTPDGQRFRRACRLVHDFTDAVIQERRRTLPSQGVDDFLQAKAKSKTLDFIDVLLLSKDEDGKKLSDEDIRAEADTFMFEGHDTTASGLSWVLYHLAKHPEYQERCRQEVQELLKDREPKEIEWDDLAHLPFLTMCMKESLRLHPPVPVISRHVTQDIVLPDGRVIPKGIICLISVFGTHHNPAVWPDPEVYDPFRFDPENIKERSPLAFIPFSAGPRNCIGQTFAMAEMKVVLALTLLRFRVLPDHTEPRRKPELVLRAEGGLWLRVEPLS
Method in brief: as §1

SMILES	inhibition at 0.5 µM
COc1cncc(C2CCN(c3ccn[nH]3)CC2)c1 [Compound 60, 3-(1-(1H-Pyrazol-5-yl)piperidin-4-yl)-5-methoxypyridine]	38.4%
COc1ccc(C2CCN(c3cn[nH]c3)CC2)cc1Cl [Compound 64, 4-(3-Chloro-4-methoxyphenyl)-1-(1H-pyrazol-4-yl)piperidine]	72%
CC(=O)N(C)c1ccc(C2CCN(c3cn[nH]c3)CC2)c(F)c1 [Compound 69, N-(4-(1-(1H-Pyrazol-4-yl)piperidin-4-yl)-3-fluorophenyl)-N-methylacetamide]	57.9%
O=C1CCCN1c1ccc(C2CCN(c3ccn[nH]3)CC2)cc1 [Compound 101, 1-(4-(1-(1H-Pyrazol-5-yl)piperidin-4-yl)phenyl)pyrrolidin-2-one]	80%
CC(Nc1ccc(C2CCN(c3cn[nH]c3)CC2)cc1)C(F)(F)F (stereo not shown) [Compound 104, 4-(1-(1H-Pyrazol-4-yl)piperidin-4-yl)-N-(1,1,1-trifluoropropan-2-yl)aniline]	78%
O=C1CCCN1Cc1ccc(C2CCN(c3cn[nH]c3)CC2)cc1F [Compound 109, 1-(4-(1-(1H-Pyrazol-4-yl)piperidin-4-yl)-2-fluorobenzyl)pyrrolidin-2-one]	86%
Cc1ccc(CC2CCN(c3cn[nH]c3)CC2)cc1 [Compound 116, 4-(4-Methylbenzyl)-1-(1H-pyrazol-4-yl)piperidine]	89.3%

system: not listed separately; assay: HLM stability determination; type: in vitro ADME, human; details: HLM 500 μg/ml, 1 μM compound, NADPH, relative to 0 min
Procedure: HLM stability determinations shown in Table 3 were obtained as follows. Microsomal incubates contained HLM (500 μg/ml), test compounds (1 μM) and NADPH (1.3 mM) in a 1 ml total volume of microsomal incubation buffer (0.12 M potassium phosphate buffer containing 5 mM magnesium chloride). Reaction was started by adding NADPH to the incubates and was carried out at 37° C. in a shaking water bath for 60 min. At 0, 15, 30, 45, 60 min, a 50 μl aliquot of incubates was taken out and reaction was stopped by adding aliquot into 200 μl ice-cold acetonitrile. After centrifugation at 14000×g for 5 min, 200 μl supernatant was taken out for UPLC-MS/MS analysis as described above. Values at 0 min were used as corresponding control for test compounds. Varapamil, metoprolol, and warfarin, categorized as fast, moderate and slow metabolism, were used as positive control. Incubates without NADPH group served as negative control.

SMILES	Stability HLM % @ 30 min
COc1cncc(C2CCN(c3ccn[nH]3)CC2)c1 [Compound 60, 3-(1-(1H-Pyrazol-5-yl)piperidin-4-yl)-5-methoxypyridine]	100%

system: MDR1 (P-gp); assay: BBB penetration potential, MDR1-MDCK permeability; type: in vitro ADME; details: dog, apical to basolateral, pH 7.4, read-out: BBB penetration potential MDCK A-B 10−6 cm/s
Procedure: BBB penetration potential assessment data in Table 1 was obtained as follows. MDR1-MDCK cell monolayers were grown to confluence on collagen-coated, microporous membranes in 12-well assay plates. Atenolol, propranolol and digoxin were used as control to assess plate quality. The permeability assay buffer was Hanks' balanced salt solution containing 10 mM HEPES and 15 mM glucose at a pH of 7.4. The buffer in the receiver chamber also contained 1% bovine serum albumin. The dosing solution concentration was 5 μM of test article in the assay buffer. Cell monolayers were dosed on the apical side (A-to-B) or basolateral side (B-to-A) and incubated at 37° C. with 5% CO2 in a humidified incubator. Samples were taken from the donor and receiver chambers at 120 minutes. Each determination was performed in duplicate the flux of lucifer yellow was also measured post-experimentally for each monolayer to ensure no damage was inflicted to the cell monolayers during the flux period. All samples were assayed by LC-MS/MS using electrospray ionization using a PE SCIEX API 4000 spectrometer and total run time of 1 min. Analytical method/conditions were: Liquid Chromatography Column: Waters ACQUITY UPLC BEH Phenyl 30×2.1 mm, 1.7 m; M.P. Buffer: 25 mM ammonium formate buffer, pH 3.5; Aqueous Reservoir (A): 90% water, 10% buffer; Organic Reservoir (B): 90% acetonitrile, 10% buffer; Flow Rate: 0.7 mL/minute; gradient program: 99% A (t=0 min), 1% A (t=0.65 min), 1% A (t=0.75 min), 99% A (t=0.8 min), 99% A (t=1 min); 5 μL injection volume
The apparent permeability (Papp) and percent recovery were calculated as follows: Papp=(dCr/dt)×Vr/(A×CA) (1) Percent Recovery=100×((Vr×Cr^final)+(Vd×Cd^final))/(Vd×CN) (2)
wherein: • dCr/dt is the slope of the cumulative concentration in the receiver compartment versus time in μMs^−1; • Vr is the volume of the receiver compartment in cm^3; • Vd is the volume of the donor compartment in cm^3; • A is the area of the insert (1.13 cm^2 for 12-well); • CA is the average of the nominal dosing concentration and the measured 120 minute donor concentration in μM; • CN is the nominal concentration of the dosing solution in μM; • Cr^final is the cumulative receiver concentration in μM at the end of the incubation period; • Cd^final is the concentration of the donor in μM at the end of the incubation period. Efflux ratio (ER) is defined as Papp (B-to-A)/Papp (A-to-B) Interpretation Brain Penetration Potential Classification: • Papp (A-to-B)≥3.0 and ER<3.0: High • Papp (A-to-B)≥3.0 and 10>ER≥3.0: Moderate • Papp (A-to-B)≥3.0 and ER≥10, or Papp (A-to-B)<3.0 Low

SMILES	Papp A→B at 120 min, 5 μM
COc1ccc(C2CCN(c3cn[nH]c3)CC2)cc1Cl [Compound 64, 4-(3-Chloro-4-methoxyphenyl)-1-(1H-pyrazol-4-yl)piperidine]	46.4 ×10⁻⁶ cm/s
CC(=O)N(C)c1ccc(C2CCN(c3cn[nH]c3)CC2)c(F)c1 [Compound 69, N-(4-(1-(1H-Pyrazol-4-yl)piperidin-4-yl)-3-fluorophenyl)-N-methylacetamide]	22.3 ×10⁻⁶ cm/s
O=C1CCCN1c1ccc(C2CCN(c3ccn[nH]3)CC2)cc1 [Compound 101, 1-(4-(1-(1H-Pyrazol-5-yl)piperidin-4-yl)phenyl)pyrrolidin-2-one]	33.8 ×10⁻⁶ cm/s
CC(Nc1ccc(C2CCN(c3cn[nH]c3)CC2)cc1)C(F)(F)F (stereo not shown) [Compound 104, 4-(1-(1H-Pyrazol-4-yl)piperidin-4-yl)-N-(1,1,1-trifluoropropan-2-yl)aniline]	50.4 ×10⁻⁶ cm/s
O=C1CCCN1Cc1ccc(C2CCN(c3cn[nH]c3)CC2)cc1F [Compound 109, 1-(4-(1-(1H-Pyrazol-4-yl)piperidin-4-yl)-2-fluorobenzyl)pyrrolidin-2-one]	10.8 ×10⁻⁶ cm/s
Cc1ccc(CC2CCN(c3cn[nH]c3)CC2)cc1 [Compound 116, 4-(4-Methylbenzyl)-1-(1H-pyrazol-4-yl)piperidine]	77.4 ×10⁻⁶ cm/s

same assay, conditions: dog, basolateral to apical, pH 7.4, read-out: BBB penetration potential MDCK B-A 10−6 cm/s

SMILES	Papp B→A at 120 min, 5 μM
COc1ccc(C2CCN(c3cn[nH]c3)CC2)cc1Cl [Compound 64, 4-(3-Chloro-4-methoxyphenyl)-1-(1H-pyrazol-4-yl)piperidine]	34.8 ×10⁻⁶ cm/s
CC(=O)N(C)c1ccc(C2CCN(c3cn[nH]c3)CC2)c(F)c1 [Compound 69, N-(4-(1-(1H-Pyrazol-4-yl)piperidin-4-yl)-3-fluorophenyl)-N-methylacetamide]	44.4 ×10⁻⁶ cm/s
O=C1CCCN1c1ccc(C2CCN(c3ccn[nH]3)CC2)cc1 [Compound 101, 1-(4-(1-(1H-Pyrazol-5-yl)piperidin-4-yl)phenyl)pyrrolidin-2-one]	46.7 ×10⁻⁶ cm/s
CC(Nc1ccc(C2CCN(c3cn[nH]c3)CC2)cc1)C(F)(F)F (stereo not shown) [Compound 104, 4-(1-(1H-Pyrazol-4-yl)piperidin-4-yl)-N-(1,1,1-trifluoropropan-2-yl)aniline]	48.9 ×10⁻⁶ cm/s
O=C1CCCN1Cc1ccc(C2CCN(c3cn[nH]c3)CC2)cc1F [Compound 109, 1-(4-(1-(1H-Pyrazol-4-yl)piperidin-4-yl)-2-fluorobenzyl)pyrrolidin-2-one]	77.5 ×10⁻⁶ cm/s
Cc1ccc(CC2CCN(c3cn[nH]c3)CC2)cc1 [Compound 116, 4-(4-Methylbenzyl)-1-(1H-pyrazol-4-yl)piperidine]	70.3 ×10⁻⁶ cm/s

system: 20-HETE formation (CYP4) in RLM; assay: Inhibition of 20-HETE formation at 250 or 500 nM in RLM microsomal incubations; type: biochemical, rat; details: 500 nM compound; RLM 300 μg/ml
Method in brief: as §1

SMILES	RLM % inh. @ 500 nM
COc1cncc(C2CCN(c3ccn[nH]3)CC2)c1 [Compound 60, 3-(1-(1H-Pyrazol-5-yl)piperidin-4-yl)-5-methoxypyridine]	0.00%
COc1ccc(C2CCN(c3cn[nH]c3)CC2)cc1Cl [Compound 64, 4-(3-Chloro-4-methoxyphenyl)-1-(1H-pyrazol-4-yl)piperidine]	49.00%
CC(=O)N(C)c1ccc(C2CCN(c3cn[nH]c3)CC2)c(F)c1 [Compound 69, N-(4-(1-(1H-Pyrazol-4-yl)piperidin-4-yl)-3-fluorophenyl)-N-methylacetamide]	27.70%
O=C1CCCN1c1ccc(C2CCN(c3ccn[nH]3)CC2)cc1 [Compound 101, 1-(4-(1-(1H-Pyrazol-5-yl)piperidin-4-yl)phenyl)pyrrolidin-2-one]	48.70%
CC(Nc1ccc(C2CCN(c3cn[nH]c3)CC2)cc1)C(F)(F)F (stereo not shown) [Compound 104, 4-(1-(1H-Pyrazol-4-yl)piperidin-4-yl)-N-(1,1,1-trifluoropropan-2-yl)aniline]	36.00%
O=C1CCCN1Cc1ccc(C2CCN(c3cn[nH]c3)CC2)cc1F [Compound 109, 1-(4-(1-(1H-Pyrazol-4-yl)piperidin-4-yl)-2-fluorobenzyl)pyrrolidin-2-one]	62.70%
Cc1ccc(CC2CCN(c3cn[nH]c3)CC2)cc1 [Compound 116, 4-(4-Methylbenzyl)-1-(1H-pyrazol-4-yl)piperidine]	59.60%

system: not listed separately; assay: Turbidometric solubility determination; type: physicochemical; details: PBS with 1% DMSO, aqueous buffer, kinetic from dmso stock, room temperature, OD620, read-out: Max Solub
Method in brief: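 Kinetic turbidimetric solubility: DMSO stocks diluted 1:100 into PBS in triplicate to give 0–600 μM in 1% DMSO. Shaken 2 h at room temperature, then OD620 read. Solubility limit taken as the concentration giving a statistically significant absorbance rise above background.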

SMILES	solubility at 2 h
COc1ccc(C2CCN(c3cn[nH]c3)CC2)cc1Cl [Compound 64, 4-(3-Chloro-4-methoxyphenyl)-1-(1H-pyrazol-4-yl)piperidine]	19.5 µM (≈ 5.69 µg/mL)
CC(=O)N(C)c1ccc(C2CCN(c3cn[nH]c3)CC2)c(F)c1 [Compound 69, N-(4-(1-(1H-Pyrazol-4-yl)piperidin-4-yl)-3-fluorophenyl)-N-methylacetamide]	304 µM (≈ 96.2 µg/mL)
O=C1CCCN1c1ccc(C2CCN(c3ccn[nH]3)CC2)cc1 [Compound 101, 1-(4-(1-(1H-Pyrazol-5-yl)piperidin-4-yl)phenyl)pyrrolidin-2-one]	158 µM (≈ 49 µg/mL)
CC(Nc1ccc(C2CCN(c3cn[nH]c3)CC2)cc1)C(F)(F)F (stereo not shown) [Compound 104, 4-(1-(1H-Pyrazol-4-yl)piperidin-4-yl)-N-(1,1,1-trifluoropropan-2-yl)aniline]	31 µM (≈ 10.5 µg/mL)
O=C1CCCN1Cc1ccc(C2CCN(c3cn[nH]c3)CC2)cc1F [Compound 109, 1-(4-(1-(1H-Pyrazol-4-yl)piperidin-4-yl)-2-fluorobenzyl)pyrrolidin-2-one]	> 600 µM
Cc1ccc(CC2CCN(c3cn[nH]c3)CC2)cc1 [Compound 116, 4-(4-Methylbenzyl)-1-(1H-pyrazol-4-yl)piperidine]	71 µM (≈ 18.1 µg/mL)
